In article PMC6389993, “Quercetin and its metabolite isorhamnetin promote glucose uptake through different signalling pathways in myotubes” (Scientific Reports, 2019):

Columns and labels:
[1] = cited from earlier work
IRS1 = test: Phosphorylation of IRS1 in L6 myotubes (western blot); assay type: cell-based, rat; settings: 0.1–10 nM, 15 min
Procedure: (§1) For in vitro cell culture experiments, after serum starvation for 18 h, myotubes were treated with various concentrations of quercetin or isorhamnetin (0.1–10 nM) for 15 min; DMSO (final 0.1%) was used as a vehicle control. As positive controls, 100 nM insulin, 1 mM AICAR, 10 nM leptin, or 100 ng/mL IL-15 were used for insulin, AMPK, JAK2/STAT, or JAK3/STAT signalling pathways, respectively. Cells were treated with insulin or AICAR for 15 min, leptin for 60 min, or IL-15 for 24 h. Whole protein and plasma membrane fractions were prepared from myotubes, as previously described. For in vivo experiment, plasma membrane fraction and tissue lysate of soleus muscle were prepared.
(§2) Translocation of GLUT4 to the plasma membrane, as well as expression and phosphorylation levels of GLUT4-related regulators were estimated by western blot analysis. Briefly, equal amounts of proteins were separated by sodium dodecyl sulfate-polyacrylamide gel electrophoresis (SDS-PAGE). […] Specific immune complexes were developed using ImmunoStar® LD and detected with an ATTO Light-Capture II Western Blotting Detection System. Individual band density was calculated by ImageJ and normalized to the control.

ACC = test: Phosphorylation of ACC in L6 myotubes (western blot); assay type: cell-based, rat; settings: 0.1 nM or 1 nM, 15 min
Procedure: as §1, §2

STAT1 = test: Phosphorylation of STAT1 in L6 myotubes (western blot); assay type: cell-based, rat; settings: 0.1–10 nM, 15 min
Procedure: as §1, §2

STAT5 = test: Phosphorylation of STAT5 in L6 myotubes (western blot); assay type: cell-based, rat; settings: 1 nM, 15 min
Procedure: as §1, §2

JAK3 = test: Phosphorylation of JAK3 in L6 myotubes (western blot); assay type: cell-based, rat; settings: physiological concentration range (0.1–10 nM), 15 min
Procedure: as §1, §2

O=c1c(O)c(-c2ccc(O)c(O)c2)oc2cc(O)cc(O)c12 [quercetin, 3,3′,4′,5,7-pentahydroxy flavone]
basal concentrations in the blood ([1]; humans, after consumption of 80–100 mg of quercetin equivalent): 300 to 750 nM
absorption rate ([1]; in humans): 9–20%
phosphorylation of IRS1 (IRS1): dose-dependently promoted
phosphorylation of ACC (ACC): phosphorylation was increased

COc1cc(-c2oc3cc(O)cc(O)c3c(=O)c2O)ccc1O [isorhamnetin, 3′-O-methyl quercetin]
phosphorylation of STAT1 (STAT1): but not STAT1
phosphorylation of STAT5 (STAT5): increased
JAK3 phosphorylation (JAK3): effectively promoted
